Assay results from US12622910B2, “Inhibitors of Bruton's tyrosine kinase and methods of their use” (Janssen Pharmaceutica NV, priority 2021, dated 2026).
Where two headings read alike, the source gives them in different places.

What was measured:
[1] = Population PK model and simulations; design: species or system human
From the text: PK/PD modeling and simulation—In the PK/PD model, a two-compartment population PK (popPK) model with a first-order absorption and elimination was used to fit the PK data. The model was parameterized in terms of apparent clearance (CL/F), apparent volume of distribution of the central compartment (V2/F), apparent inter-compartmental clearance (Q/F), apparent volume of distribution of the peripheral compartment (V3/F), and first-order absorption rate constant (Ka). Inter-individual variability was included on CL/F, V2/F, Q/F, and Ka. Following the development of the popPK model, the PK/PD model was subsequently developed based on individual estimates from the popPK model.
Once MAD data were available, the semi-mechanistic PK/PD model was updated with the acquired data from SAD and MAD cohorts. All covariate effects in the popPK analysis were evaluated on clearance from the central compartment (CL/F) only, except for body weight, food effect, and drug formulation. Body weight was included in the structural model (as a covariate on the CL/F, V2/F, Q/F). […] Food effect and drug formulation were evaluated on Ka. The covariates model selection was conducted using a full-model approach with backward elimination (nominal p<0.001, i.e., a change in the objective function value of 10.83 with 1 degree of freedom). A covariate model was initially developed using all statistically significant covariates of interest, and was then reduced by removing covariates with effect sizes less than 10% of the typical values of the respective PK parameters. This reduced model was regarded as the final mode which was subsequently used for PD model. Model selection was determined by graphical assessment, statistically significant difference in the objective function value between competing models. The performance of the final model was evaluated using a prediction-corrected visual predictive check (pcVPC; n=1000 replicates).
The semi-mechanistic PK/PD model was performed using NONMEM (version 7.3.0, ICON Development Solutions LLC, Ellicott City, MD, United States). The use of NONMEM, including model qualification procedures, were facilitated within the environment of Perl-speaks-NONMEM (version 4.6.0, a compatible front-end program for NONMEM. Data management, exploratory analyses, diagnostic graphics, and post processing of the data and NONMEM outputs were performed using R (version 3.4.1, The R Project for Statistical Computing, statistical software). All analyses were performed in a validated environment, High Performance Pharmacometrics Platform System (Rudraya Sonic version 4 or higher), based on Good Automated Manufacturing Practice and in accordance with 21 CFR Part 11 and Good Clinical Practice regulations.

[2] = Metabolic stability in liver microsomes; format: in vitro ADME, monkey
Protocol: (§1) Additional Data on Preclinical PK Profile—Protein binding of the compound of Formula (III) was studied using an equilibrium dialysis method in plasma from human, cynomolgus monkey, beagle dog, Sprague Dawley rat, CD-1 mouse, and guinea pig at 0.25, 2.5, and 25 μM. […] In human and monkey, the plasma protein binding was concentration dependent. […] Free fraction of the compound of Formula (III) in liver microsomes from various species ranged from 75.1% to 87.9% at 0.25 mg/mL and from 58.9% to 86.5% at 1.0 mg/mL (Table 17). […] In hepatocytes, the compound of Formula (III) turnover followed a similar trend, with T1/2 ranging from 75.3 minutes in monkey to 278.1 minutes in human.

[3] = Metabolic stability in liver microsomes; format: in vitro ADME, rat
Protocol: as §1

5-HT3 (h) = 5-HT3 (h) (Homo sapiens, UniProt P46098); test: Receptor panel, Study 1; format: binding
5-HT3 (h), sequence (P46098 24-478): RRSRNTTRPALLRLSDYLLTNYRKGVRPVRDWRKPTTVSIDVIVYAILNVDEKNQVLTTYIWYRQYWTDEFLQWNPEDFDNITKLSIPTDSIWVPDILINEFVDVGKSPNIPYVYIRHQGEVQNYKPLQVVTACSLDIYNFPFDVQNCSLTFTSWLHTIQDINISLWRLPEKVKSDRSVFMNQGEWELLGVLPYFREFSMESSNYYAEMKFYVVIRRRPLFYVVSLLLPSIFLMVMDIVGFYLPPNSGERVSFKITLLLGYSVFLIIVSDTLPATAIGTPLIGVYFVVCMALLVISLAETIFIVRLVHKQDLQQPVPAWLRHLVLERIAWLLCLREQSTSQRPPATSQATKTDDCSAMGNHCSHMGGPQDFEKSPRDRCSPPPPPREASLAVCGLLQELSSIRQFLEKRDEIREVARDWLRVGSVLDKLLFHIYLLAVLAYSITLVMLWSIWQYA
Protocol: (§2) RESULTS AND DISCUSSION—Selectivity—The compound of Formula (III) was evaluated in three selectivity panels to assess the potential for off-target pharmacology (Table 8). […] The kinase off-target profile of The compound of Formula (III) was assessed in a full human wild-type panel using radiometric kinase activity assays (KinaseProfiler™ and IC50Profiler™; Eurofins Scientific) (Table 9; FIG. 23). The compound of Formula (III) inhibited 4/278 kinases >50% at 1 micromolar, identifying BTK and the three other kinases having analogous Cys residues with the potential for covalent inhibition (BMX, TEC, BLK). […]. The cellular kinase selectivity of The compound of Formula (III) was established in native Ramos B cell kinome assays (KiNativ™; ActivX) confirmed BTK as the primary target with inhibition of BLK and TEC inhibition detected (Table 10).

5-HT Transporter (h) = 5-HT Transporter (h) (Homo sapiens, UniProt P31645); test: Receptor panel, Study 1; format: binding
5-HT Transporter (h), sequence (P31645 whole entry): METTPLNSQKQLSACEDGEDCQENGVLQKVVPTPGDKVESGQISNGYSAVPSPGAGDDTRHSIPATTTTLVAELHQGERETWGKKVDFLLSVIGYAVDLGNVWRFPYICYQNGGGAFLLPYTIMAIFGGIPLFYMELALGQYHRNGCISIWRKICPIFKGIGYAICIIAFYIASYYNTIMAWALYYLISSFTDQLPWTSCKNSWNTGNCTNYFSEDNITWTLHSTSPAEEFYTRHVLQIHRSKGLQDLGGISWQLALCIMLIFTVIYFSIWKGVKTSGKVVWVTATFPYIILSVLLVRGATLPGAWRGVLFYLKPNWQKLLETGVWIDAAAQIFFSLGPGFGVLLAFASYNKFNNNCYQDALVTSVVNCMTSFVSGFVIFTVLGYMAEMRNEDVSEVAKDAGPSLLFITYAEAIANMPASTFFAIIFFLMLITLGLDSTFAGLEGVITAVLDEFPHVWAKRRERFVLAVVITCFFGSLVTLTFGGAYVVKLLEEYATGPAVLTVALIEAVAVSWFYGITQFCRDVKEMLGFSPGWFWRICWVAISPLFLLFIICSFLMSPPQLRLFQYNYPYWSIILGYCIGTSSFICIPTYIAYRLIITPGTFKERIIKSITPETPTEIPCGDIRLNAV
Protocol: as §2

Vla(h) = Vla(h) (Homo sapiens, UniProt P37288); test: Receptor panel, Study 1; format: binding
Vla(h), sequence (P37288 whole entry): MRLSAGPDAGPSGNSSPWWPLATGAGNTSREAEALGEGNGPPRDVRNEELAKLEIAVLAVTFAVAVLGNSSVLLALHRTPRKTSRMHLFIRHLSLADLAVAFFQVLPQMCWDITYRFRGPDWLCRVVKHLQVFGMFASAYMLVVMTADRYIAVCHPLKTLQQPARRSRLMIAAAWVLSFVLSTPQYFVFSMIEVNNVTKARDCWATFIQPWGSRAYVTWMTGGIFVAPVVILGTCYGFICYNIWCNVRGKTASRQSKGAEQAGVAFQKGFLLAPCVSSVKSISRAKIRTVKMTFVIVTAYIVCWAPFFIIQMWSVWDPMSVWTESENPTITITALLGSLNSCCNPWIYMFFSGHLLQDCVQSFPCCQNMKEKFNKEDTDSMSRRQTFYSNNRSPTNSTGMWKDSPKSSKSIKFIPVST
Protocol: as §2

H1 (h) = H1 (h) (Homo sapiens, UniProt P35367); test: Receptor panel, Study 1; format: binding
H1 (h), sequence (P35367 whole entry): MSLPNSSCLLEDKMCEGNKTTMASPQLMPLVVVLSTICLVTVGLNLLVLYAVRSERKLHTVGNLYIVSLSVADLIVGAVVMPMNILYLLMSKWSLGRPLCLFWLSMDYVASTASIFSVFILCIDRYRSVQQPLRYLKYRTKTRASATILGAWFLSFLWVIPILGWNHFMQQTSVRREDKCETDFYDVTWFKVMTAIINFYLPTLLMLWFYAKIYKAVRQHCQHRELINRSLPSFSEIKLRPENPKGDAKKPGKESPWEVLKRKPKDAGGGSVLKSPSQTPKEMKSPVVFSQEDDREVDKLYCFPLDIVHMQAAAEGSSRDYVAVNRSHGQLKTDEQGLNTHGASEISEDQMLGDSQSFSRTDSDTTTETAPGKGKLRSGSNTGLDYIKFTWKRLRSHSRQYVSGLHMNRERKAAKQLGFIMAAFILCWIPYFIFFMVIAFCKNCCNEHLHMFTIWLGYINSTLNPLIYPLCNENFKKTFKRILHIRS
Protocol: as §2

mu (h) (MOP) = mu (h) (MOP) (Homo sapiens, UniProt P35372); test: Receptor panel, Study 1; format: binding
Protocol: as §2

5-HT1A (h) = 5-HT1A (h) (Homo sapiens, UniProt P08908); test: Receptor panel, Study 1; format: binding
5-HT1A (h), sequence (P08908 whole entry): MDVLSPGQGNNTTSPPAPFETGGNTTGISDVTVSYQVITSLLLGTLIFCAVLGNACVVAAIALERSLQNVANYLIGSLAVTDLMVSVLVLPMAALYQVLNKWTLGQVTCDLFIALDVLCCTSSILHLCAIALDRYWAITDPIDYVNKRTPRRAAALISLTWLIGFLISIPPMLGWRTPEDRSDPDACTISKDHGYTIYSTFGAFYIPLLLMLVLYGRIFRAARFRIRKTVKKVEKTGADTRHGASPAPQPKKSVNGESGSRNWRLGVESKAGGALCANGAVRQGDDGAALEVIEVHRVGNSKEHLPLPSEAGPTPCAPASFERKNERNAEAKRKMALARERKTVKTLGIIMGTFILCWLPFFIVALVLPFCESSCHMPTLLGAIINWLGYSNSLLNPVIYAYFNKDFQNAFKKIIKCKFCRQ
Protocol: as §2

5-HT1B = 5-HT1B (Rattus norvegicus, UniProt P28564); test: Receptor panel, Study 1; format: binding
Protocol: as §2

NK3 (h) = NK3 (h) (Homo sapiens, UniProt P29371); test: Receptor panel, Study 1; format: binding
NK3 (h), sequence (P29371 whole entry): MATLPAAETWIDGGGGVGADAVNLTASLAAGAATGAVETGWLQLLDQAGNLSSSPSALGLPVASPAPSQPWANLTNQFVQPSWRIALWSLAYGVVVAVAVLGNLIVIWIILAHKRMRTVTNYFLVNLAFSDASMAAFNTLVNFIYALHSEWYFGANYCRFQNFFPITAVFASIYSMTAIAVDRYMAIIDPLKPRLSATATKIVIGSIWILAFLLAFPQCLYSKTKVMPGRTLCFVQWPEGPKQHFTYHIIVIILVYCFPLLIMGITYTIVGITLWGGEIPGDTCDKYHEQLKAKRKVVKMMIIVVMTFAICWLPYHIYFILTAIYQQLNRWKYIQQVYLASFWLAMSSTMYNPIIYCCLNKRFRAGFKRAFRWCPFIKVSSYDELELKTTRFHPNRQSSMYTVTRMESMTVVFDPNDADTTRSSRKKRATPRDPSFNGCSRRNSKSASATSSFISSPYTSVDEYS
Protocol: as §2

D2S (h) = D2S (h) (Homo sapiens, UniProt P14416); test: Receptor panel, Study 1; format: binding
D2S (h), sequence (P14416 1-414 isoform P14416-2): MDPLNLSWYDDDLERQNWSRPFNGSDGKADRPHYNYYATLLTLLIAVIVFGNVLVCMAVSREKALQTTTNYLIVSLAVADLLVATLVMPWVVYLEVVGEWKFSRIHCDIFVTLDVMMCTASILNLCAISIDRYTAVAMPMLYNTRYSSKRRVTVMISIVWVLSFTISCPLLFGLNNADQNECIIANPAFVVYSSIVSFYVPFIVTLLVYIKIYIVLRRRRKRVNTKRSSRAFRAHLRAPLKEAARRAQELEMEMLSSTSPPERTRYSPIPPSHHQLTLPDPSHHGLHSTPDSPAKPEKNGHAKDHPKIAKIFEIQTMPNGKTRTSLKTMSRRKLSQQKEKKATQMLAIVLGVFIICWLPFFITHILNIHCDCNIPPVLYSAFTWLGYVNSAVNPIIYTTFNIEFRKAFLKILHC
Protocol: as §2

5-HT7 (h) = 5-HT7 (h) (Homo sapiens, UniProt P34969); test: Receptor panel, Study 1; format: binding
5-HT7 (h), sequence (P34969 whole entry): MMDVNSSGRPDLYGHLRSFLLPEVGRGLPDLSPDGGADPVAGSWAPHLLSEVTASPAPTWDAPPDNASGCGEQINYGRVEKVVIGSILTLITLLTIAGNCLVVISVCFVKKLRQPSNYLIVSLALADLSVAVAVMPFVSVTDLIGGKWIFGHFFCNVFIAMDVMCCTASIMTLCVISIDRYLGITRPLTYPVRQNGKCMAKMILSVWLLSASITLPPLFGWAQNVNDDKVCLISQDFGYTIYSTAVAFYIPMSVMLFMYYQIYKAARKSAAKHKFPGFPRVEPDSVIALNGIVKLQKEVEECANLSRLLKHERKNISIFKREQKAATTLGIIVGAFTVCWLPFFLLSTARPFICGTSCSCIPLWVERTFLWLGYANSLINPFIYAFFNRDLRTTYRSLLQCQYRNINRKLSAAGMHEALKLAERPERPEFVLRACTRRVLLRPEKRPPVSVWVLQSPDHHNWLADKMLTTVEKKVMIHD
Protocol: as §2

M2 (h) = M2 (h) (Homo sapiens, UniProt P08172); test: Receptor panel, Study 1; format: binding
M2 (h), sequence (P08172 whole entry): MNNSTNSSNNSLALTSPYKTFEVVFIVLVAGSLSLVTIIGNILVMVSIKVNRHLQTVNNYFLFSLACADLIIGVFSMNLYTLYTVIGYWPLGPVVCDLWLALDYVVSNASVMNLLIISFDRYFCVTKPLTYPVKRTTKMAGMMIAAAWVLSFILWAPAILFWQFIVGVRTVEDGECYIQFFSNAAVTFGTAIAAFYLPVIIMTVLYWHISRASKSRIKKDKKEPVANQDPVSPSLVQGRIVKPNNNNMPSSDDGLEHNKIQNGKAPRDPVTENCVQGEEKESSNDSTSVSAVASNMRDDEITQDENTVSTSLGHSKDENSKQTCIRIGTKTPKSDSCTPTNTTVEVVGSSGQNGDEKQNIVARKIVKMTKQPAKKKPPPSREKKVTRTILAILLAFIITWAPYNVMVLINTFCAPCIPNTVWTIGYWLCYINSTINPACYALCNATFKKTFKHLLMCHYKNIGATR
Protocol: as §2

5-HT2A (h) = 5-HT2A (h) (Homo sapiens, UniProt P28223); test: Receptor panel, Study 1; format: binding
5-HT2A (h), sequence (P28223 whole entry): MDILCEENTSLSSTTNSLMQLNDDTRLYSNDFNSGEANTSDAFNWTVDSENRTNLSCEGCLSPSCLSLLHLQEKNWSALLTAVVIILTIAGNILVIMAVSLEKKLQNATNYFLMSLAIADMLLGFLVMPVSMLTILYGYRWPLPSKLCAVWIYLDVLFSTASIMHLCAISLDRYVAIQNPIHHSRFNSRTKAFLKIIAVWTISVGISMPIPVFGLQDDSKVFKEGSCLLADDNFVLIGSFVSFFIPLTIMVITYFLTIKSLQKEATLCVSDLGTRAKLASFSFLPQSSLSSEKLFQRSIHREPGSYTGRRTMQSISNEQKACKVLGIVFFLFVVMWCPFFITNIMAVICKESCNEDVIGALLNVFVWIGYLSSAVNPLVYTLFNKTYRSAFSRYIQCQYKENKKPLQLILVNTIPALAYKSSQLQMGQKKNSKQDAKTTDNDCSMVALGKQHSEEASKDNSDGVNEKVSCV
Protocol: as §2

[4] = model (B), all SAD and MAD data

## C=CC(=O)N[C@H]1CCC[C@H]1NC(=O)c1sc2nccc3c2c1NC(=O)N3c1cnc(CC(C)C)cc1C (atropisomer, axis not shown) [compound of Formula (III), N-((1R,2S)-2-Acrylamidocyclopentyl)-5-(S)-(6-isobutyl-4-methylpyridin-3-yl)-4-oxo-4,5-dihydro-3H-1-thia-3,5,8-triazaacenaphthylene-2-carboxamide]
[1]; model (A), first 5 SAD cohorts
  CL/F, popPK estimate: 49.4 L/h
  Ka, popPK estimate: 1.94 h⁻¹
  Q/F, popPK estimate: 1.57 L/h
  V1/F, popPK estimate: 108.9 L
[1]; [4]
  CL/F, popPK estimate: 62.4 L/h
  FORM = Oral Capsule on Ka (covariate effect): 0.325
  Ka, popPK estimate: 1.97 h⁻¹
  NURT = Fed, standard meal on Ka (covariate effect): 0.339
  Q/F, popPK estimate: 2.85 L/h
  V1/F, popPK estimate: 129.6 L
[2]; Monkey
  Extraction Ratio, liver microsomes: 0.65
[2]; monkey, liver microsomes
  microsomal CLint: 61 µL/min/mg
[2]; monkey, liver microsomes, read-out: T1/2, liver microsomes
  half-life: 11.4 min
[3]; Rat
  Extraction Ratio, liver microsomes: 0.58
[3]; rat, liver microsomes
  microsomal CLint: 53.8 µL/min/mg
[3]; rat, liver microsomes, read-out: T1/2, liver microsomes
  half-life: 12.9 min
5-HT3 (h)
  inhibition at 10 µM: < 10%
5-HT Transporter (h)
  inhibition at 10 µM: < 10%
Vla(h)
  inhibition at 10 µM: < 10%
H1 (h)
  inhibition at 10 µM: < 10%
Mu (h) (MOP)
  inhibition at 10 µM: < 10%
5-HT1A (h)
  inhibition at 10 µM: < 10%
5-HT1B
  inhibition at 10 µM: < 10%
NK3 (h)
  inhibition at 10 µM: 38.9%
D2S (h)
  inhibition at 10 µM: < 10%
5-HT7 (h)
  inhibition at 10 µM: < 10%
M2 (h)
  inhibition at 10 µM: < 10%
5-HT2A (h)
  inhibition at 10 µM: < 10%
